Assay: PK study of P-S after topical
Format: in vivo, rat
Settings: for Tmax: LEW/crlBR, rat, po, 50 mg/kg
[1] = oral gavage P-S 50 mg/kg single dose, blood
[2] = oral gavage P-S 50 mg/kg single dose, muscle
[3] = topical PSH, single dose P-S 50 mg/kg on both hind legs, muscle
[4] = topical PSH, single dose P-S 50 mg/kg, blood
[5] = topical PSH, single dose P-S 50 mg/kg, muscle

Compound	Tmax (blood) [h]	Tmax (muscle) [h]	AUC0–24h, blood [1]	Cmax, blood [1] [nmol/g]	AUC0–24h, muscle [2]	Cmax, muscle [2] [nmol/g]	Cmax, muscle [3] [nmol/g]	AUC0–24h, blood [4]	Cmax, blood [4] [nmol/g]	AUC0–24h, muscle [5]	muscle Cmax (topical PSH, muscle) [nmole/g tissue]	Tmax, blood [1] [h]	Tmax, muscle [2] [h]	Tmax, blood [4] [h]	Tmax, muscle [5] [h]
CSc1ccc(/C=C2/C(C)=C(CC(=O)O)c3cc(F)ccc32)cc1 [S.sulfide, sulindac sulfide]	8	8	156 (nmole/g)*h	13	158 (nmole/g)*h	13	2	122 (nmole/g)*h	10	18 (nmole/g)*h	≤ 31	–	–	–	–
CC1=C(CC(=O)O)c2cc(F)ccc2/C1=C\c1ccc(S(C)(=O)=O)cc1 [S.sulfone, sulindac sulfone]	–	–	–	52	764 (nmole/g)*h	40	12	400 (nmole/g)*h	23	170 (nmole/g)*h	≤ 31	8	8	8	24
CC1=C(CC(=O)O)c2cc(F)ccc2/C1=C\c1ccc([S+](C)[O-])cc1 (stereo not shown) [Sulindac, sulindac, reference compound]	2	8	405 (nmole/g)*h	33	296 (nmole/g)*h	20	31	245 (nmole/g)*h	18	399 (nmole/g)*h	≤ 31	–	–	–	–

Source: paper PMC4395004 (Pharmaceutical research, 2013)
